Blank lines part the entries; values can stand above or below the molecule they belong to.
Legend:
[1] = Solubility of drug in menthol melt; format: physicochemical; conditions: for Solubility: in menthol melt
Procedure: Menthol (10 grams) was melted on a stirring hot plate with magnetic stirring, then heated to the desired temperature indicated in Table 1. The desired drug was added in small increments (approximately 0.1 grams) and stirred to obtain a clear solution. The desired drug was added in increments until no more drug dissolved in the menthol.
Menthol (10 grams) was melted on a stirring hot plate with magnetic stirring, then heated to the desired temperature indicated in Table 1. The Azithromycin was added in small increments (0.1 grams) and stirred to obtain a clear solution. The drug was added in increments until no more drug dissolved in the menthol.

[2] = tested on: antimicrobial peptide gene expression; conditions: Wang et al., J. Immunol. 2004; cited from earlier work

Compound: CC[C@H]1OC(=O)[C@H](C)[C@@H](O[C@H]2C[C@@](C)(OC)[C@@H](O)[C@H](C)O2)[C@H](C)[C@@H](O[C@@H]2O[C@H](C)C[C@H](N(C)C)[C@H]2O)[C@](C)(O)C[C@@H](C)CN(C)[C@H](C)[C@@H](O)[C@]1(C)O [Azithromycin]
Solubility ([1]; 63 °C): 40.0 % w/w

Compound: C=C1/C(=C\C=C2/CCC[C@]3(C)[C@@H]([C@H](C)CCCC(C)(C)O)CC[C@@H]23)C[C@@H](O)C[C@@H]1O [calcitriol, 1,25-dihydroxyvitamin D3]
induction of antimicrobial peptide gene expression [2]: inducer of the antimicrobial peptide gene expression

Further lines, results first:

solubility in the menthol melt ([1]; without the additives PEG 6000 and Poloxamer 407): soluble
Compound: CC(=O)O[C@@]12CO[C@@H]1C[C@H](O)[C@@]1(C)C(=O)[C@H](O)C3=C(C)[C@@H](OC(=O)[C@H](O)[C@@H](NC(=O)OC(C)(C)C)c4ccccc4)C[C@@](O)([C@@H](OC(=O)c4ccccc4)[C@H]21)C3(C)C [Docetaxel]

solubility in menthol ([1]; 60° C.): 1% | Solubility ([1]; 61 °C): 1.0 % w/w
Compound: CCC(C)n1ncn(-c2ccc(N3CCN(c4ccc(OCC5COC(Cn6cncn6)(c6ccc(Cl)cc6Cl)O5)cc4)CC3)cc2)c1=O (stereo not drawn) [Itraconazole]

Solubility ([1]; 43 °C): 16.0 % w/w
Compound: O=C(O)c1ccccc1O [Salicylic acid]
